Assay results from a melting point compilation (Tetko et al.; mined from patent text by program, amines drawn as free bases though some values may be those of a salt).

SMILES	melting point [°C]
CC(=O)CCc1ccc(I)cc1	75 to 76
CCCCCCCCCCCCCCCC(=O)OCC(O)COC(=O)CCCCCCCCCCCCCCC	71 to 73
COc1cc(C(=O)NS(=O)(=O)c2ccccc2C)ccc1Cc1c(Cl)n(C)c2cc(Cl)c(CCNC(=O)N(C)C)cc12	236 to 238
O=c1oc2cc(O)c(F)cc2s1	141 to 143
CC(=O)Nc1c(C)nn(C)c1C	118 to 119
O=C(O)CSc1ccc([N+](=O)[O-])cc1C(=O)O	216 to 217
O=C(Nc1c(Cl)cccc1Cl)N1CCN(c2cnccn2)CC1	177 to 179
COc1ccc2cc(CCc3ccc(OCC(O)CNC(C)C)cc3)n(C)c(=O)c2c1 (stereo unspecified)	137 to 139
CC(CCO)C(c1cc(F)ccc1F)S(=O)(=O)c1ccc(Cl)cc1 (stereo unspecified)	65 to 67
COc1ccccc1C(=O)c1noc(CC(N)=O)n1	149 to 150
O=C1CCc2c1cccc2C(=O)c1ccccc1	86 to 88
CCC(=O)CN1C(=O)C2(COc3cc4c(cc32)OCCO4)c2ccccc21 (stereo unspecified)	182 to 183
CNC(=O)C1=CC(CF)(CF)Oc2cc(Cl)c(Cl)cc21	141 to 142
O=C1N[C@H](c2ccco2)[C@@H]1O	133 to 135
Cn1c(=O)c(=NO)nc(-c2ccccc2)c2cnccc21	223 to 224
O=C(O)c1cn(C2CC2)c2c(C(F)(F)F)c(N3CCC(c4ccncc4)C3)c(F)cc2c1=O (stereo unspecified)	244 to 245
COc1ccc(CCOc2c(-c3ccc(S(C)(=O)=O)cc3)cnn(CC(F)(F)F)c2=O)cc1OC	133 to 134
O=C(CCC#Cc1ccccn1)Nc1cccc(Cl)c1	168 to 169
OCc1cc2ccc3ccccc3c2o1	106 to 107
O=C(O)C1CN(c2ccc(-c3noc(CN4C(=O)c5ccccc5C4=O)n3)cc2)C(=O)O1 (stereo unspecified)	130 to 135
CC(C)(ON=C(C(=O)N[C@@H]1C(=O)N[C@@H]1C(N)=O)c1csc(NC(=O)CCl)n1)C(=O)OCc1ccc([N+](=O)[O-])cc1 (relative stereo)	144 to 147
O=c1[nH]c2cc(-c3cn4ccccc4n3)ccc2s1	> 270
Cc1nn(-c2cc3nc(S)sc3cc2F)c(=O)n1C(F)F	248 to 250
CSc1ccc(-c2cncn2-c2ccc(S(C)(=O)=O)cc2)cc1	153 to 155
CC=CC=CC(O)c1ccc(-c2nc(C)c3c(n2)sc2c(OCC)nc(N4CCNCC4)nc23)cc1 (stereo unspecified)	149 to 150
COc1cc(Nc2c(C#N)cnc3cc(C#CCCN4CCN(C)CC4)c(OC)cc23)c(Cl)cc1Cl	165 to 167

SMILES	melting point [°C]
COc1ccc(OC2CN(S(=O)(=O)c3ccc(C)cc3)CCc3ccccc32)cc1 (stereo unspecified)	84 to 85
OC1CSC(=S)N1c1ccccn1 (stereo unspecified)	110
O=C(O)Cc1cccc(-c2cccc(COC3OC(CO)C(O)C(O)C3O)c2)c1 (stereo unspecified)	74 to 75
Cn1c(=O)c2nc(-c3ccc(/C=C/C(=O)O)cc3)[nH]c2n(C)c1=O	299 to 301
O=C(Nc1ccccc1)N1CCC(C(Nc2ccc(F)cc2)c2ccc(F)cc2)CC1 (stereo unspecified)	96 to 101
CCOC(=O)Cn1cccc1-c1nc(-c2ccc(OC)cc2)c(-c2ccc(OC)cc2)s1	132 to 136
O=C(CCCCCN1CCN(c2ccc3c(c2)CCCC3)CC1)N1Cc2ccccc2C1	123
CN(C)c1ccccc1CS(=O)(=O)c1nccn1-c1ccncc1	132 to 135
Cc1cc(C)nc(C(N)=NO)n1	209
Nc1nc(-c2ccc(F)cc2)c(CCN2CCC(n3nnc4cc(F)ccc43)CC2)s1	234 to 235
COC(=O)C(CC(C)C)NC(=O)C(CC(C)C)NC(=O)OCc1ccccc1 (stereo unspecified)	80 to 82
COCCO[C@@H]1c2ccn3c(Cl)c(C)nc3c2N[C@H](c2ccccc2)[C@H]1O	123 to 126
CCN(C(=O)CCCCc1nnnn1C1CCCCC1)C1CCCCC1	92 to 95
CC(=O)NC[C@H]1CN(c2ccc(N3CCSCC3)c(F)c2)C(=O)O1	186
CN1CCc2c(c(P(=O)(O)O)cc3[nH]c(=O)c(=O)[nH]c23)C1	> 325
CC(C)=CCN1Cc2cc(Cl)cc3[nH]c(=S)n(c23)C[C@@H]1C	186
OCC1=Cc2cc3ccccc3n2CC1	139 to 142
CCCOCCOc1ccc(OCC(O)CNCCNc2cc(=O)n(C)c(=O)n2C)cc1 (stereo unspecified)	125
O=C1C(=Cc2ccncc2)CCc2cc(OCCn3ccnc3)ccc21	128 to 129
CCOC(=O)c1nnc(-c2ccccc2)cc1-c1cccc([N+](=O)[O-])c1	121 to 122
CC(C)C(C)C=CC(C)C1CCC2C1(C)CCC1C23C=CC2(CC(O)CCC12C)OO3 (stereo unspecified)	165 to 169
O=C1C[C@@H](NC(=O)OCc2ccccc2)C(=O)O1	126 to 127
CCOCc1nc2c(N)nc3cc(-c4ccccc4)cnc3c2n1CCCON=C(C)C	134 to 136
CCCn1nc2c(N)nc3ncccc3c2c1CC1CCOCC1	252 to 255
COc1ccc(C2(O)c3ccccc3-c3ccccc32)cc1	91 to 93
CN(C)Cc1c[nH]c2ccc(CCS(=O)(=O)N(C)C)cc12	156 to 159

SMILES	melting point [°C]
c1ccc2c(Sc3cccc4ccccc34)cccc2c1	108 to 110
CCOP(=O)(CCCOn1cnc2c(Cl)nc(NC=O)nc21)OCC	121 to 124
N#Cc1ccc(COc2cc(O)cc(C(=O)Nc3ccc(C#N)cc3)c2)cc1	199 to 201
NC1=C([C@H]2CC[C@H](c3ccc(Cl)cc3)CC2)C(=O)c2ccccc2C1=O	210 to 215
O=C(NCCO)c1cccc(-c2cncc3cc(Cc4cccc(C(F)(F)F)c4)oc23)c1	155 to 156
CC(C)CC1C(OC2CCCCO2)CC(=O)N1C(=O)OC(C)(C)C (stereo unspecified)	81 to 83
COc1ccc(NC2=NC(C)(C)Cc3cc(OC)c4c(c32)CC(C)(C)O4)cc1	139 to 140
CCCCCCCOc1cc(F)nc(N)n1	30 to 32
CN(C(=O)OC(C)(C)C)c1cc(Oc2ccc(-c3ccc(O)cc3)cc2)ccc1N	89 to 91
CO[C@@H]1CC[C@@H](NC(N)=O)c2ccccc21 (relative stereo)	159 to 165
COC(=O)c1c(OC)ccc(OC)c1N=CN(C)C	81 to 83
Cc1nc(-c2cc3cccc(NS(=O)(=O)c4cccs4)c3[nH]2)sc1C	210 to 211
O=c1[nH]c2sccc2c(=O)n1CCN1CCN(c2ccccc2)CC1	228 to 230
NCc1c(-c2ccc(Oc3ccccc3)cc2)c2c(N)ncnc2n1C1CCCC1	196 to 198
O=C(Nc1ccc(C(F)(F)F)cc1)N1CC(c2ccc(Cl)cc2)C(c2ccc(Cl)cc2)N1 (stereo unspecified)	242 to 243
COc1ccc(-c2ccc(=O)[nH]n2)cc1OC1CC2CCC1C2 (stereo unspecified)	188 to 189
CC1(C)CCC(C)(C)c2cc(C#Cc3ccc(S(C)(=O)=O)cc3)ccc21	153 to 155
CN(C(=O)c1cn2cc(-c3ccc(Cl)cc3)ccc2n1)C(Cc1ccc(OCc2ccccc2)cc1)C(=O)O (stereo unspecified)	216
CN1CCC(c2nn(C(=O)c3ccc(F)cc3)c3ccccc23)CC1	132 to 133
CCCCNC(=O)C(Cc1ccccc1)NC(=O)c1cc2cc(Cl)ccc2[nH]1 (stereo unspecified)	192 to 193
CN(C)CCCOc1ccc(C(=O)NN)cc1	79.5 to 81
COc1ccccc1C(CO)c1c[nH]c2c(=O)[nH]c(N)nc12 (stereo unspecified)	262 to 265
O=C(Nc1ccc(C(F)(F)F)cc1)NC1CCN(S(=O)(=O)c2ccccc2)CC1	248 to 252
Cc1cc(-c2cc(=O)n(C)[nH]2)c(F)cc1Cl	155 to 156
O=C1CCC(OCc2ccccc2)N1S(=O)(=O)c1ccccc1 (stereo unspecified)	80 to 81
CC(c1ccc(CCNC(=O)c2ccc(Br)cc2)cc1)N1CCCC1 (stereo unspecified)	124 to 126

SMILES	melting point [°C]
OC1OC(Cn2cncn2)(c2ccc(Cl)cc2)c2ccccc21 (stereo unspecified)	215 to 217
CC(=O)Nc1ccc(NCCO)c([N+](=O)[O-])c1	186
CCN(CC)C(=O)c1nc(CCl)n(-c2ccc(Cl)cc2C(=O)c2ccccc2)n1	118 to 119
O=C(O)c1ccccc1C(=O)C=Cc1cc(O)c(O)c([N+](=O)[O-])c1	178 to 180
Nc1cccc(NC(=S)Nc2ccc(Cl)cc2)c1	132 to 134
Cc1cc2c(cc1C(C)SCC(=O)O)OCO2 (stereo unspecified)	93.5 to 94.5
FC(F)c1cn(-c2c(Cl)cc(C(F)(F)F)cc2Cl)nc1C(F)(F)F	88 to 90
CNC(Cc1ccccc1N)C(=O)c1ccc(OC)c(OC)c1 (stereo unspecified)	128 to 131
Cc1c2ccccc2c(C(=O)O)c2c(C(=O)O)cccc12	275 to 280
COc1ccc(COc2cccc(OC)c2C(C)=O)cc1	105 to 107
CC(=O)c1c(C)c2cnc(Nc3ccc(N4CCOCC4)nc3)nc2n(C2CCCC2)c1=O	224 to 226
O=C(N[C@@H](Cc1ccc(NC(=O)c2c(Cl)cccc2Cl)cc1)C(=O)O)OCC1c2ccccc2-c2ccccc21	230 to 234
CC(C)(C)C(Cl)=NNc1ccc(Cl)cc1	42 to 43
O=C(O)c1c(-c2ccc(F)c(Cl)c2)c2ccccc2n1Cc1cc2c(cc1Cl)OCO2	210 to 211
CCOC(=O)c1sc2nc(C(C)C)ccc2c1N	161 to 162
CCOC(=O)c1cnc2[nH]ncc2c1OCC	180
Cc1cc(Cl)ccc1N=CN(C)SN(c1ccccc1)c1ccccc1	78 to 79
C=CCc1c(C(=O)OCC)nc2ccccc2c1O	146 to 147
CCOc1cc(-c2cc(C(F)F)n3ncc(-c4nc(-c5ccc(N)nc5)no4)c3n2)ccc1C(F)(F)F	250
COc1ccc2c(c1)c(N1CCN(C)CC1)nn2S(=O)(=O)c1ccccc1	165 to 167
COc1cc2cc(-c3cccnc3)cnc2cc1OC	131 to 132
CN1C(=O)[C@@H](NC(=O)OC(C)(C)C)CCc2ccccc21	132 to 134
Nc1ncccc1NCc1ccc(Oc2ccc(F)cc2)cc1	117 to 118
